In patent US11141384B2, “Long-acting formulations” (Janssen Pharmaceutica NV, priority 2017, dated 2021):
Like-named read-outs stand apart in the source and are kept apart here.

Key:
M. tuberculosis H37Rv = assay type: in vivo, Mycobacterium tuberculosis; conditions: for Mean (SD) log10 M. tuberculosis CFU/lung: 5 days per week
[1] = Oral (PO) 13 week toxicity study in rats, total exposure; assay type: in vivo; conditions: rat, top dose of 13 week study
[2] = Oral (PO) 13 week toxicity study, comparison with dog IM/SC exposure; assay type: in vivo, beagle dog; conditions: 13 week PO study, 18 mg/kg
[3] = target: mycobacterial ATP synthase (Mycobacterium tuberculosis, UniProt P9WPS1+P9WPV7); conditions: cited from earlier work
M lepra = conditions: cited from earlier work
[4] = in vivo; cited from earlier work

## CO[C@H]1/C=C/O[C@@]2(C)Oc3c(C)c(O)c4c(O)c(c(/C=N/N5CCN(C)CC5)c(O)c4c3C2=O)NC(=O)/C(C)=C\C=C\[C@H](C)[C@H](O)[C@@H](C)[C@@H](O)[C@@H](C)[C@H](OC(C)=O)[C@@H]1C [R, rifampin]
M. tuberculosis H37Rv; 10 mg/kg by gavage 5/7, after 4 weeks of treatment
  reduction of mean M. tuberculosis lung CFU count compared to untreated mice: approximately 1 log10 CFU/lung
M. tuberculosis H37Rv; 10 mg/kg by gavage 5/7, after 8 weeks of treatment
  reduction of mean M. tuberculosis lung CFU count compared to untreated mice: about 2 log10 CFU/lung
M. tuberculosis H37Rv; 10 mg/kg by gavage 5/7, after 12 weeks of treatment
  reduction of mean M. tuberculosis lung CFU count compared to untreated mice: ~3 log10 CFU/lung
M. tuberculosis H37Rv; regimen R10 (5/7): rifampin 10 mg/kg, Week 4 of treatment
  Mean (SD) log10 M. tuberculosis CFU/lung: 3.39 (0.46) log10 CFU/lung
M. tuberculosis H37Rv; regimen R10 (5/7): rifampin 10 mg/kg, Week 8 of treatment
  Mean (SD) log10 M. tuberculosis CFU/lung: 2.74 (0.62) log10 CFU/lung
M. tuberculosis H37Rv; regimen R10 (5/7): rifampin 10 mg/kg, Week 12 of treatment
  Mean (SD) log10 M. tuberculosis CFU/lung: 1.27 (0.85) log10 CFU/lung

## COc1nc2ccc(Br)cc2cc1[C@@H](c1ccccc1)[C@@](O)(CCN(C)C)c1cccc2ccccc12 [bedaquiline]
M. tuberculosis H37Rv; 2.67 mg/kg by gavage 5/7, 12 weeks (total 160 mg/kg)
  decline in lung CFU compared to untreated control mice: 1.7 log10 CFU/lung
M. tuberculosis H37Rv; 5.33 mg/kg by gavage 5/7, 12 weeks (total 320 mg/kg)
  decline in lung CFU counts: about 3 log10 CFU/lung
M. tuberculosis H37Rv; 8 mg/kg by gavage 5/7, 8 weeks versus 4 weeks
  additional decrease of lung CFU counts: 1 log10
M. tuberculosis H37Rv; 8 mg/kg by gavage 5/7, four weeks
  decline in lung CFU relative to untreated mice: about 1.5 log10 CFU/lung
M. tuberculosis H37Rv; 25 mg/kg by gavage 5/7, after 4 weeks
  reduction of M. tuberculosis lung CFU compared to untreated mice: about 1.7 log10 CFU/lung
M. tuberculosis H37Rv; 25 mg/kg by gavage 5/7, after 8 weeks
  reduction of M. tuberculosis lung CFU compared to untreated mice: ~4.0 log10 CFU/lung
M. tuberculosis H37Rv; 25 mg/kg by gavage 5/7, after 12 weeks
  reduction of M. tuberculosis lung CFU compared to untreated mice: ~4.9 log10 CFU/lung
M. tuberculosis H37Rv; regimen B2.67 (5/7): oral bedaquiline 2.67 mg/kg, Week 4 of treatment
  Mean (SD) log10 M. tuberculosis CFU/lung: 3.96 (0.35) log10 CFU/lung
M. tuberculosis H37Rv; regimen B2.67 (5/7): oral bedaquiline 2.67 mg/kg, Week 8 of treatment
  Mean (SD) log10 M. tuberculosis CFU/lung: 3.52 (0.38) log10 CFU/lung
M. tuberculosis H37Rv; regimen B2.67 (5/7): oral bedaquiline 2.67 mg/kg, Week 12 of treatment
  Mean (SD) log10 M. tuberculosis CFU/lung: 3.16 (0.24) log10 CFU/lung
M. tuberculosis H37Rv; regimen B5.33 (5/7): oral bedaquiline 5.33 mg/kg, Week 4 of treatment
  Mean (SD) log10 M. tuberculosis CFU/lung: 3.83 (0.25) log10 CFU/lung
M. tuberculosis H37Rv; regimen B5.33 (5/7): oral bedaquiline 5.33 mg/kg, Week 8 of treatment
  Mean (SD) log10 M. tuberculosis CFU/lung: 3.15 (0.47) log10 CFU/lung
M. tuberculosis H37Rv; regimen B5.33 (5/7): oral bedaquiline 5.33 mg/kg, Week 12 of treatment
  Mean (SD) log10 M. tuberculosis CFU/lung: 1.98 (0.17) log10 CFU/lung
M. tuberculosis H37Rv; regimen B8 (5/7): oral bedaquiline 8 mg/kg, Week 4 of treatment
  Mean (SD) log10 M. tuberculosis CFU/lung: 3.30 (0.12) log10 CFU/lung
M. tuberculosis H37Rv; regimen B8 (5/7): oral bedaquiline 8 mg/kg, Week 8 of treatment
  Mean (SD) log10 M. tuberculosis CFU/lung: 2.42 (0.26) log10 CFU/lung
M. tuberculosis H37Rv; regimen B8 (5/7): oral bedaquiline 8 mg/kg, Week 12 of treatment
  Mean (SD) log10 M. tuberculosis CFU/lung: 0.69 (0.43) log10 CFU/lung
M. tuberculosis H37Rv; regimen B25 (5/7): oral bedaquiline 25 mg/kg, Week 4 of treatment
  Mean (SD) log10 M. tuberculosis CFU/lung: 3.01 (0.45) log10 CFU/lung
M. tuberculosis H37Rv; regimen B25 (5/7): oral bedaquiline 25 mg/kg, Week 8 of treatment
  Mean (SD) log10 M. tuberculosis CFU/lung: 0.82 (0.49) log10 CFU/lung
M. tuberculosis H37Rv; regimen B25 (5/7): oral bedaquiline 25 mg/kg, Week 12 of treatment
  Mean (SD) log10 M. tuberculosis CFU/lung: 0.07 (0.09) log10 CFU/lung
[1]
  total exposure after PO administration during 3 months: 2 385 383 ng·h/mL
[2]
  total exposure after PO for the same period: 13 988 520 ng·h/mL
[3]
  selectivity index for mycobacterial ATP synthase versus eukaryotic mitochondrial ATP synthase: more than 20000
M lepra
  minimal dose killing 99% of bacilli: < 5.0 mg/kg/wk
[4]
  mean terminal elimination half-life: approximately 5.5 months

## CNCC[C@@](O)(c1cccc2ccccc12)[C@H](c1ccccc1)c1cc2cc(Br)ccc2nc1OC [Formulation M2]
[4]
  mean terminal elimination half-life: approximately 5.5 months
